# According to PubChem BioAssay (NCI):
#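 Cells were grown in 96-well plates and exposed to each compound for 48 hours at five concentrations; endpoints were interpolated linearly between bracketing concentrations, or set to the highest concentration if not reached. Definition used: TGI = concentration required for complete inhibition of growth.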
# Tests used:
# Test in all cases: NCI-60 cell line screen, 48 h
# SF-268 CNS = tested on: SF-268 CNS
# HCT-116 colon = tested on: HCT-116 colon
# EKVX NSCLC = tested on: EKVX NSCLC
# HT29 colon = tested on: HT29 colon
# A549 NSCLC = tested on: A549 NSCLC
# LOX IMVI melanoma = tested on: LOX IMVI melanoma
# HOP-62 NSCLC = tested on: HOP-62 NSCLC
# DU-145 prostate = tested on: DU-145 prostate
# CAKI-1 renal = tested on: CAKI-1 renal
# SR leukemia = tested on: SR leukemia
# HL-60(TB) leukemia = tested on: HL-60(TB) leukemia
# MALME-3M melanoma = tested on: MALME-3M melanoma
# SF-539 CNS = tested on: SF-539 CNS
# MOLT-4 leukemia = tested on: MOLT-4 leukemia
# SK-MEL-5 melanoma = tested on: SK-MEL-5 melanoma
# NCI-H226 lung = tested on: NCI-H226 lung
# SK-MEL-28 melanoma = tested on: SK-MEL-28 melanoma
# SK-MEL-2 melanoma = tested on: SK-MEL-2 melanoma
# COLO 205 colon = tested on: COLO 205 colon
# K-562 leukemia = tested on: K-562 leukemia
# OVCAR-5 ovarian = tested on: OVCAR-5 ovarian
# MDA-MB-231 breast = tested on: MDA-MB-231 breast
# UO-31 renal = tested on: UO-31 renal
# U251 CNS = tested on: U251 CNS
# NCI-H522 lung = tested on: NCI-H522 lung
# UACC-62 melanoma = tested on: UACC-62 melanoma
# KM12 colon = tested on: KM12 colon
# NCI/ADR-RES ovarian = tested on: NCI/ADR-RES ovarian
# HCT-15 colon = tested on: HCT-15 colon
# A498 renal = tested on: A498 renal
# BT-549 breast = tested on: BT-549 breast
# SNB-19 CNS = tested on: SNB-19 CNS
# HCC-2998 colon = tested on: HCC-2998 colon
# IGROV1 ovarian = tested on: IGROV1 ovarian
# T-47D breast = tested on: T-47D breast
# MDA-N = tested on: MDA-N
# MCF7 breast = tested on: MCF7 breast
# SK-OV-3 ovarian = tested on: SK-OV-3 ovarian
# SNB-75 CNS = tested on: SNB-75 CNS
# NCI-H460 lung = tested on: NCI-H460 lung
# OVCAR-8 ovarian = tested on: OVCAR-8 ovarian
# SW-620 colon = tested on: SW-620 colon
# OVCAR-3 ovarian = tested on: OVCAR-3 ovarian
# PC-3 prostate = tested on: PC-3 prostate
# HS 578T breast = tested on: HS 578T breast
# SN12C renal = tested on: SN12C renal
# M14 melanoma = tested on: M14 melanoma
# ACHN renal = tested on: ACHN renal
# RPMI-8226 leukemia = tested on: RPMI-8226 leukemia
# OVCAR-4 ovarian = tested on: OVCAR-4 ovarian
# MDA-MB-435 = tested on: MDA-MB-435
# HOP-92 NSCLC = tested on: HOP-92 NSCLC
# 786-0 renal = tested on: 786-0 renal
# RXF 393 renal = tested on: RXF 393 renal
# UACC-257 melanoma = tested on: UACC-257 melanoma
# NCI-H23 lung = tested on: NCI-H23 lung
# SF-295 CNS = tested on: SF-295 CNS
# TK-10 renal = tested on: TK-10 renal
# CCRF-CEM leukemia = tested on: CCRF-CEM leukemia
smiles,measurement,setting,value
Cc1cc(O)c2c(c1)CC(O)C1=C2C(=O)c2c(O)ccc(OC3CC(O)C(OC4CC(OC5CCC(O)C(C)O5)C(O)C(C)O4)C(C)O3)c2C1=O (stereo not drawn),TGI,SF-268 CNS,3.43 µM
same,TGI,HCT-116 colon,3.47 µM
same,TGI,EKVX NSCLC,4.27 µM
same,TGI,HT29 colon,5.6 µM
same,TGI,A549 NSCLC,7.77 µM
same,TGI,LOX IMVI melanoma,2.89 µM
same,TGI,HOP-62 NSCLC,3.77 µM
same,TGI,DU-145 prostate,3.19 µM
same,TGI,CAKI-1 renal,3.23 µM
same,TGI,SR leukemia,2.81 µM
same,TGI,HL-60(TB) leukemia,1.68 µM
same,TGI,MALME-3M melanoma,2.1 µM
same,TGI,SF-539 CNS,3.62 µM
same,TGI,MOLT-4 leukemia,1.75 µM
same,TGI,SK-MEL-5 melanoma,2.78 µM
same,TGI,NCI-H226 lung,3.32 µM
same,TGI,SK-MEL-28 melanoma,3.86 µM
same,TGI,SK-MEL-2 melanoma,3.83 µM
same,TGI,COLO 205 colon,2.95 µM
same,TGI,K-562 leukemia,6.98 µM
same,TGI,OVCAR-5 ovarian,12.8 µM
same,TGI,MDA-MB-231 breast,3.58 µM
same,TGI,UO-31 renal,3.23 µM
same,TGI,U251 CNS,3.22 µM
same,TGI,NCI-H522 lung,2.52 µM
same,TGI,UACC-62 melanoma,3.05 µM
same,TGI,KM12 colon,4.46 µM
same,TGI,NCI/ADR-RES ovarian,9.61 µM
same,TGI,HCT-15 colon,4.64 µM
same,TGI,A498 renal,4.91 µM
same,TGI,BT-549 breast,3.42 µM
same,TGI,SNB-19 CNS,3.38 µM
same,TGI,HCC-2998 colon,3.58 µM
same,TGI,IGROV1 ovarian,2.9 µM
same,TGI,T-47D breast,8.38 µM
same,TGI,MDA-N,3.74 µM
same,TGI,MCF7 breast,2.96 µM
same,TGI,SK-OV-3 ovarian,6.71 µM
same,TGI,SNB-75 CNS,7.73 µM
same,TGI,NCI-H460 lung,4.85 µM
same,TGI,OVCAR-8 ovarian,3.51 µM
same,TGI,SW-620 colon,3.14 µM
same,TGI,OVCAR-3 ovarian,2.16 µM
same,TGI,PC-3 prostate,3.96 µM
same,TGI,HS 578T breast,6.36 µM
same,TGI,SN12C renal,3.25 µM
same,TGI,M14 melanoma,3.04 µM
same,TGI,ACHN renal,2.95 µM
same,TGI,RPMI-8226 leukemia,3.22 µM
same,TGI,OVCAR-4 ovarian,3.45 µM
same,TGI,MDA-MB-435,2.82 µM
same,TGI,HOP-92 NSCLC,3.54 µM
same,TGI,786-0 renal,3.47 µM
same,TGI,RXF 393 renal,3.02 µM
same,TGI,UACC-257 melanoma,2.93 µM
same,TGI,NCI-H23 lung,3.88 µM
same,TGI,SF-295 CNS,7.47 µM
same,TGI,TK-10 renal,4.03 µM
same,TGI,CCRF-CEM leukemia,0.706 µM
CN1CCc2cc(N)cc3c2C1Cc1ccc2c(c1-3)OCO2 (stereo not drawn),TGI,SF-268 CNS,> 100 µM
same,TGI,HCT-116 colon,> 90.4 µM
same,TGI,EKVX NSCLC,> 100 µM
same,TGI,HT29 colon,> 100 µM
same,TGI,A549 NSCLC,> 100 µM
same,TGI,LOX IMVI melanoma,37.2 µM
same,TGI,HOP-62 NSCLC,> 100 µM
same,TGI,DU-145 prostate,96.9 µM
same,TGI,CAKI-1 renal,> 100 µM
same,TGI,SR leukemia,> 39.6 µM
same,TGI,HL-60(TB) leukemia,> 75.7 µM
same,TGI,MALME-3M melanoma,58.6 µM
same,TGI,SF-539 CNS,> 95 µM
same,TGI,MOLT-4 leukemia,35 µM
same,TGI,SK-MEL-5 melanoma,49.8 µM
same,TGI,NCI-H226 lung,83.2 µM
same,TGI,SK-MEL-28 melanoma,> 100 µM
same,TGI,SK-MEL-2 melanoma,> 100 µM
same,TGI,COLO 205 colon,> 86.9 µM
same,TGI,K-562 leukemia,> 80 µM
same,TGI,OVCAR-5 ovarian,> 77.7 µM
same,TGI,MDA-MB-231 breast,> 100 µM
same,TGI,UO-31 renal,84.6 µM
same,TGI,U251 CNS,> 100 µM
same,TGI,NCI-H522 lung,53.1 µM
same,TGI,UACC-62 melanoma,70.5 µM
same,TGI,KM12 colon,> 100 µM
same,TGI,NCI/ADR-RES ovarian,> 83 µM
same,TGI,HCT-15 colon,> 100 µM
same,TGI,A498 renal,> 100 µM
same,TGI,BT-549 breast,> 100 µM
same,TGI,SNB-19 CNS,> 100 µM
same,TGI,HCC-2998 colon,51.4 µM
same,TGI,IGROV1 ovarian,58.5 µM
same,TGI,T-47D breast,> 100 µM
same,TGI,MDA-N,> 100 µM
same,TGI,MCF7 breast,> 100 µM
same,TGI,SK-OV-3 ovarian,> 100 µM
same,TGI,SNB-75 CNS,> 91.5 µM
same,TGI,NCI-H460 lung,> 77.8 µM
same,TGI,OVCAR-8 ovarian,> 100 µM
same,TGI,SW-620 colon,> 100 µM
same,TGI,OVCAR-3 ovarian,> 76.5 µM
same,TGI,PC-3 prostate,> 100 µM
same,TGI,HS 578T breast,82.2 µM
same,TGI,SN12C renal,> 88.6 µM
same,TGI,M14 melanoma,> 100 µM
same,TGI,ACHN renal,> 75.5 µM
same,TGI,RPMI-8226 leukemia,46.9 µM
same,TGI,OVCAR-4 ovarian,> 90.4 µM
same,TGI,MDA-MB-435,> 100 µM
same,TGI,HOP-92 NSCLC,66.9 µM
same,TGI,786-0 renal,99 µM
same,TGI,RXF 393 renal,> 88.2 µM
same,TGI,UACC-257 melanoma,> 64.6 µM
same,TGI,NCI-H23 lung,> 100 µM
same,TGI,SF-295 CNS,> 100 µM
same,TGI,TK-10 renal,> 88.8 µM
same,TGI,CCRF-CEM leukemia,15.9 µM
